Measured values reported in ChEMBL document CHEMBL6153157, “Novel 3-Aminothieno[2,3-b]pyridine-2-carboxamides with Activity against Mycobacterium tuberculosis” (ACS Med Chem Lett, 2025).

Experiments:
[1] = test system: Mycobacterium tuberculosis; assay: Antibacterial activity against wild type Mycobacterium tuberculosis H37Rv-LP DREAM8 strain expressing codon-optimized DsRed assessed growth inhibition incubated for 5 days by fluorescence spectrophotometric assay; assay type: functional; settings: H37Rv-LP DREAM8, 120 h, time 5 day
[2] = Cytotoxicity against human HepG2 cells assessed as cell growth inhibition incubated for 3 days by CellTiter-Glo reagent-based luminescence assay; assay type: toxicity
[3] = Selectivity index, ratio of IC50 for cytotoxicity against human HepG2 cells to IC90 for antibacterial activity against wild type Mycobacterium tuberculosis H37Rv-LP DREAM8 strain expressing codon-optimized DsRed; assay type: toxicity, cell-based

Row | SMILES | IC90 [1] [µM] | IC50 at 3 days [2] [µM] | selectivity ratio [3]
1 | COc1ccc(-c2cc(C(F)(F)F)c3c(N)c(C(=O)NCCSC)sc3n2)cc1 | 41 | > 100 | 
2 | COc1ccc(-c2cc(C(F)(F)F)c3c(N)c(C(=O)Nc4cc(C)cc(C)c4)sc3n2)cc1 | > 100 | 47 | < 1
3 | Nc1c(C(=O)N2CCCC2)sc2nc(-c3ccc4c(c3)OCO4)cc(C(F)(F)F)c12 | > 100 | > 100 | 
4 | CN(C)C(=O)c1sc2nc(-c3ccccc3)ccc2c1N | > 100 | > 100 | 
5 | Nc1c(C(=O)Nc2ccccc2C(F)(F)F)sc2nc(-c3ccccc3)cc(C(F)(F)F)c12 | > 100 | 97 | 
6 | COc1ccc(-c2cc(C(F)(F)F)c3c(N)c(C(=O)N4CCCCC4)sc3n2)cc1 | > 100 | > 100 | 
7 | Nc1c(C(=O)NCc2ccccc2)sc2nc(-c3ccccc3)ccc12 | > 100 | > 100 | 
8 | COc1ccc(-c2cc(C(F)(F)F)c3c(N)c(C(=O)N4CCCC4(C)C)sc3n2)cc1 | > 100 | 78 | < 1
9 | COC1CN(C(=O)c2sc3ncccc3c2N)C1 | > 100 | > 100 | 
10 | COc1ccc(-c2cc(C(F)(F)F)c3c(N)c(C(=O)NCC45CC6CC(CC(C6)C4)C5)sc3n2)cc1 | 1.4 | > 100 | < 71
11 | Nc1c(C(=O)N2CCOCC2)sc2ncccc12 | > 100 | > 100 | 
12 | Cc1cccc(NC(=O)c2sc3nc(-c4cccs4)cc(C(F)(F)F)c3c2N)c1C | > 100 | > 100 | 
13 | COc1ccc(-c2cc(C(F)(F)F)c3c(N)c(C(=O)Nc4cccc(C)c4C)sc3n2)cc1OC | > 100 | 42 | 
14 | COc1ccc(-c2cc(C(F)(F)F)c3c(N)c(C(=O)N4CC(F)(F)C4)sc3n2)cc1 | > 50 | > 50 | < 1
15 | COCCNC(=O)c1sc2nc(-c3ccc(OC)cc3)cc(C(F)(F)F)c2c1N | > 100 | > 100 | 
16 | COc1cccc(-c2cc(C(F)(F)F)c3c(N)c(C(=O)Nc4cccc(C)c4C)sc3n2)c1 | > 100 | 52 | 
17 | Cc1cccc(NC(=O)c2sc3nc(-c4ccc5c(c4)OCO5)cc(C(F)(F)F)c3c2N)c1C | 0.94 | 46 | 
18 | Cc1ccc(-c2cc(C(F)(F)F)c3c(N)c(C(=O)Nc4cccc(C)c4C)sc3n2)cc1 | > 100 | 60 | 

Row | SMILES | IC90 [1] [µM] | IC50 at 3 days [2] [µM] | selectivity ratio [3]
19 | COc1ccc(-c2cc(C(F)(F)F)c3c(N)c(C(=O)Nc4ccccc4)sc3n2)cc1 | > 100 | > 100 | 
20 | COc1ccc(-c2cc(C(F)(F)F)c3c(N)c(C(=O)Nc4ccc(C)cc4C)sc3n2)cc1 | > 100 | > 100 | 
21 | Cc1cccc(NC(=O)c2sc3nc(-c4ccco4)cc(C(F)(F)F)c3c2N)c1C | > 100 | > 100 | 
22 | Nc1c(C(=O)NCc2ccc(F)cc2)sc2nc(-c3ccccc3)ccc12 | > 100 | > 100 | 
23 | Nc1c(C(=O)N2CCOCC2)sc2nc(Cl)ccc12 | > 100 | > 100 | 
24 | COc1ccc(-c2cc(C(F)(F)F)c3c(N)c(C(=O)Nc4cccc(C)c4F)sc3n2)cc1 | > 100 | 42 | 
25 | Nc1c(C(=O)N2CC(F)(F)C2)sc2nc(-c3ccccc3)ccc12 | > 100 | 38 | 
26 | COc1ccc(-c2cc(C(F)(F)F)c3c(N)c(C(=O)Nc4cccc(C)c4C)sc3n2)cc1 | 1.1 | 44 | 
27 | CCN(CC)C(=O)c1sc2ncccc2c1N | > 100 | > 100 | 
28 | COc1ccc(-c2cc(C(F)(F)F)c3c(N)c(C(=O)NC4CCC(c5ccc(C(C)(C)C)cc5)CC4)sc3n2)cc1 (stereo unspecified) | > 10 | > 10 | 
29 | COc1ccc(-c2cc(C(F)(F)F)c3c(N)c(C(=O)NC4CC4)sc3n2)cc1 | > 100 | > 100 | 
30 | COC1CN(C(=O)c2sc3nc(-c4ccccc4)ccc3c2N)C1 | > 100 | 38 | 
31 | CCNC(=O)c1sc2nc(-c3ccc(Cl)cc3Cl)cc(C(F)(F)F)c2c1N | > 100 | 36 | 
32 | COc1ccc(-c2cc(C(F)(F)F)c3c(N)c(C(=O)NC4COC4)sc3n2)cc1 | > 100 | > 100 | 
33 | Nc1c(C(=O)N2CC(F)(F)C2)sc2ncccc12 | > 100 | > 100 | 
34 | Cc1ccc(NC(=O)c2sc3nc(-c4ccccc4)cc(C(F)(F)F)c3c2N)cc1 | > 100 | 24 | 
35 | Nc1c(C(=O)N2CCOCC2)sc2nc(-c3ccoc3)ccc12 | > 100 | 50 | 
36 | COc1ccc(-c2cc(C(F)(F)F)c3c(N)c(C(=O)Nc4cccc(C)c4C)sc3n2)cn1 | 1.4 | 31 | 
